This note sets out measurements from US10828301B2, “2,4-pyrimidinediamine compounds and their uses” (Rigel Pharmaceuticals, Inc, priority 2002, dated 2020).

pIC50: −log10 of the molar value. Bounds are passed on as bounds.

Experiment [1] concerns cultured human mast cells (CHMC). In words: CHMC low cell density ionomycin activation: tryptase assay. Type of experiment: cell-based. To be noted: Homo sapiens, Mast cell, Low Density CHMC, ionomycin activation, tryptase readout; read-out: CHMC Ionomycin Tryptase.
Experiment [2] shares this test system. In words: CHMC low cell density IgE activation: tryptase and LTC4 assays. The format is cell-based. The conditions noted are these: Homo sapiens, Mast cell, Low Density CHMC, anti-IgE activation, tryptase readout; read-out: CHMC anti-IgE Tryptase. The method, boiled down: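 Cultured human mast cells at low density (1000-1500 per well) rested 1 h at 37° C, then stimulated with anti-IgE for 30 min at 37° C. Supernatant tryptase measured with fluorogenic substrate (30 min, room temperature); LTC4 quantified by ELISA on diluted supernatant.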

Take `COC(=O)Cc1ccc(Nc2ncc(F)c(Nc3ccc(CC(=O)OC)cc3)n2)cc1` [Compound R926605, N2,N4-Bis[4-(methoxycarbonylmethyl)phenyl]-5-fluoro-2,4-pyrimidinediamine]: the pIC50 is less than 5.00 in experiment [1] and 5.61 in experiment [2].
As for `CCOC(=O)c1cc2cc(Nc3ncc(F)c(Nc4cccc(O)c4)n3)ccc2[nH]1` [Compound R926615, N2-(2-Ethoxycarbonylindol-5-yl)-5-fluoro-N4-(3-hydroxyphenyl)-2,4-pyrimidinediamine], the figures for the pIC50 in experiment [1] and in experiment [2] were less than 5.00 and 6.35, respectively.
For the compound `CCOC(=O)c1cc2cc(Nc3ncc(F)c(Nc4ccc5[nH]c(C(=O)OCC)cc5c4)n3)ccc2[nH]1` [Compound R926616, N2,N4-Bis(2-ethoxycarbonylindol-5-yl)-5-fluoro-2,4-pyrimidinediamine], the results for the pIC50 in experiment [1] and in experiment [2] were 5.49 and 6.20, respectively.
On to `O=c1ccc2cc(Nc3ncc(F)c(Nc4ccc5oc(=O)ccc5c4)n3)ccc2o1` [Compound R926617, N2,N4-Bis(coumarin-6-yl)-5-fluoro-2,4-pyrimidinediamine], for which the results for the pIC50 in experiment [1] and in experiment [2] were less than 5.00 and 5.02, respectively.
Consider `Cc1cc(Nc2ncc(F)c(Nc3cc(C)c(O)cc3C)n2)c(C)cc1O` [Compound R926623, N2,N4-Bis(2,5-dimethyl-4-hydroxyphenyl)-5-fluoro-2,4-pyrimidinediamine], for which the pIC50 in experiment [1] and in experiment [2] was less than 5.00 in each case.
`CCOC(=O)Cc1ccc(Nc2ncc(C#N)c(Nc3ccc(CC(=O)OCC)cc3)n2)cc1` [Compound R926662, N2,N4-Bis[4-(ethoxycarbonylmethyl)phenyl]-5-cyano-2,4-pyrimidinediamine]: the pIC50 in experiment [1] and in experiment [2] was less than 5.00 each time.
In the case of `CCOC(=O)Cc1ccc(Nc2ncc(C(F)(F)F)c(Nc3ccc(CC(=O)OCC)cc3)n2)cc1` [Compound R926663, N2,N4-Bis[4-(ethoxycarbonylmethyl)phenyl]-5-trifluoromethyl-2,4-pyrimidinediamine], the pIC50 in experiment [1] and in experiment [2] was less than 5.00 in each case.
Consider `Oc1ccc(Nc2ncc(F)c(Nc3ccc(O)c(Cl)c3)n2)cc1Cl` [Compound R926675, N2,N4-Bis(3-chloro-4-hydroxyphenyl)-5-fluoro-2,4-pyrimidinediamine], for which the pIC50 in experiment [1] was less than 5.00; in experiment [2], 6.20.
For `Oc1ccc(Nc2ncc(F)c(Nc3ccc(O)c(F)c3)n2)cc1F` [Compound R926681, N2,N4-Bis(3-fluoro-4-hydroxyphenyl)-5-fluoro-2,4-pyrimidinediamine] the same measures were less than 5.00 and 6.11.
The matching figures for `CC(=O)Nc1cccc(Nc2ncc(F)c(Nc3cccc(NC(C)=O)c3)n2)c1` [Compound R926682, N2,N4-Bis(3-acetamidophenyl)-5-fluoro-2,4-pyrimidinediamine]: less than 5.00 and 5.08.
With `Oc1ccc(Nc2ncc(F)c(Nc3ccc(O)cc3F)n2)c(F)c1` [Compound R926683, N2,N4-Bis(2-fluoro-4-hydroxyphenyl)-5-fluoro-2,4-pyrimidinediamine], the pIC50 in experiment [1] is less than 5.00; in experiment [2] it was 5.00.
`COc1cc(Nc2ncc(F)c(Nc3cc(OC)c(OC)c(OC)c3)n2)cc(OC)c1OC` [Compound R926688, N2,N4-Bis(3,4,5-trimethoxyphenyl)-5-fluoro-2,4-pyrimidinediamine]: the pIC50 is less than 5.00 in experiment [1] and 5.65 in experiment [2].
In the case of `COC(=O)c1cc2cc(Nc3ncc(F)c(Nc4ccc5c(c4)OCCO5)n3)ccc2o1` [Compound R926690, N4-(3,4-Ethylenedioxyphenyl)-5-fluoro-N2-[2-(methoxycarbonyl)benzofuran-5-yl]-2,4-pyrimidinediamine], the pIC50 is less than 5.00 in experiment [1] and 6.84 in experiment [2].
For `CC(C)Oc1ccc(Nc2ncc(F)c(Nc3ccc(OC(C)C)cc3)n2)cc1` [Compound R926701, N2,N4-Bis(4-isopropoxyphenyl)-5-fluoro-2,4-pyrimidinediamine] the same measures were less than 5.00 and 5.66.
For `CC(C)(CO)NC(=O)c1cc2cc(Nc3ncc(F)c(Nc4cccc(O)c4)n3)ccc2o1` [Compound R926715, 5-Fluoro-N2-[2-(2-hydroxy-1,1-dimethylethylamino)carbonylbenzofuran-5-yl]-N4-(3-hydroxyphenyl)-2,4-pyrimidinediamine] the same measures were less than 5.00 and 6.23.
In the case of `O=S(=O)(c1ccc(Nc2ncc(F)c(Nc3ccc4c(c3)OCCO4)n2)cc1)N1CCCC1` [Compound R926716, N4-(3,4-Ethylenedioxyphenyl)-5-fluoro-N2-[4-(tetrahydro-(1H)-pyrrol-1-ylsulfonyl)phenyl]-2,4-pyrimidinediamine], the pIC50 in experiment [1] was less than 5.00; in experiment [2], 5.97.
For `Fc1cnc(NCCCN2CCN(Cc3c(F)cccc3Cl)CC2)nc1Nc1ccc2c(c1)OCCO2` [Compound R926717, N2-[3-[4-(2-Chloro-6-fluorobenzyl)piperazino]propyl]-N4-(3,4-ethylenedioxyphenyl)-5-fluoro-2,4-pyrimidinediamine] the same measures were less than 5.00 and 5.10.
For the compound `CC(C)(C)c1ccc(Nc2nc(Nc3ccc4c(c3)CC(C(=O)O)O4)ncc2F)cc1` (stereo not drawn) [Compound R926720, N4-(4-tert-Butylphenyl)-5-fluoro-N2-[2,3-dihydro-2-(carboxy)benzofuran-5-yl]-2,4-pyrimidinediamine], the results for the pIC50 in experiment [1] and in experiment [2] were less than 5.00 and 5.81, respectively.
For `Fc1cnc(Nc2ccc3c(c2)OCCO3)nc1NCc1csc2ccc(Cl)cc12` [Compound R926721, N4-[(5-Chloro-1-benzothiophen-3-yl)methyl]-N2-(3,4-ethylenedioxyphenyl)-5-fluoro-2,4-pyrimidinediamine] the same measures were less than 5.00 and 5.35.
In the case of `Oc1cccc(Nc2ncc(F)c(NCc3csc4ccc(Cl)cc34)n2)c1` [Compound R926722, N4-[(5-Chloro-1-benzothiophen-3-yl)methyl]-5-fluoro-N2-(3-hydroxyphenyl)-2,4-pyrimidinediamine], the pIC50 in experiment [1] is less than 5.00; in experiment [2] it was 5.22.
For `Oc1cccc(Nc2ncc(F)c(NCCSCc3c(F)cccc3Cl)n2)c1` [Compound R926724, N4-[2-[(2-Chloro-6-fluorobenzyl)thio]ethyl]-5-fluoro-N2-(3-hydroxyphenyl)-2,4-pyrimidinediamine] the same measures were less than 5.00 and 5.69.
As for `Fc1cnc(Nc2ccc3[nH]ccc3c2)nc1Nc1ccc2c(c1)OCCO2` [Compound R926748, N4-(3,4-Ethylenedioxyphenyl)-5-fluoro-N2-[(1H)-indol-5-yl]-2,4-pyrimidinediamine], the pIC50 in experiment [1] was less than 5.00; in experiment [2], 6.46.
The matching figures for `Oc1cccc(Nc2nc(Nc3ccc4[nH]ccc4c3)ncc2F)c1` [Compound R926749, 5-Fluoro-N4-(3-hydroxyphenyl)-N2-[(1H)-indol-5-yl]-2,4-pyrimidinediamine]: less than 5.00 and 6.33.
The matching figures for `Fc1cnc(Nc2ccc3cc[nH]c3c2)nc1Nc1ccc2c(c1)OCCO2` [Compound R926750, N4-(3,4-Ethylenedioxyphenyl)-5-fluoro-N2-[(1H)-indol-6-yl]-2,4-pyrimidinediamine]: less than 5.00 and 6.44.
